Paper PMC9481570, “A small molecule antagonist of SMN disrupts the interaction between SMN and RNAP II” (Nature Communications, 2022)
“And” between values parts separate entries of the source, which are not always exact repeats. Equal values may be shown once.

Key:
Test in all cases: Affinity-purification and mass spectrometry (AP-MS) chemical proteomics, all proteins;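 for Difference: 200 µM free competitor with 20 µM biotin probe overnight in lysate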
Format in all cases: binding
[1] = target: T1, proteins displaced from immobilized biotin-Cmpd 1 pulldowns (U2OS cell lysate) (Homo sapiens, UniProt Q8WXX7); conditions: GN=AUTS2 (Q8WXX7)
T1 construct: endogenous in cells; host or cells: U2OS
T1 sequence (Q8WXX7 whole entry): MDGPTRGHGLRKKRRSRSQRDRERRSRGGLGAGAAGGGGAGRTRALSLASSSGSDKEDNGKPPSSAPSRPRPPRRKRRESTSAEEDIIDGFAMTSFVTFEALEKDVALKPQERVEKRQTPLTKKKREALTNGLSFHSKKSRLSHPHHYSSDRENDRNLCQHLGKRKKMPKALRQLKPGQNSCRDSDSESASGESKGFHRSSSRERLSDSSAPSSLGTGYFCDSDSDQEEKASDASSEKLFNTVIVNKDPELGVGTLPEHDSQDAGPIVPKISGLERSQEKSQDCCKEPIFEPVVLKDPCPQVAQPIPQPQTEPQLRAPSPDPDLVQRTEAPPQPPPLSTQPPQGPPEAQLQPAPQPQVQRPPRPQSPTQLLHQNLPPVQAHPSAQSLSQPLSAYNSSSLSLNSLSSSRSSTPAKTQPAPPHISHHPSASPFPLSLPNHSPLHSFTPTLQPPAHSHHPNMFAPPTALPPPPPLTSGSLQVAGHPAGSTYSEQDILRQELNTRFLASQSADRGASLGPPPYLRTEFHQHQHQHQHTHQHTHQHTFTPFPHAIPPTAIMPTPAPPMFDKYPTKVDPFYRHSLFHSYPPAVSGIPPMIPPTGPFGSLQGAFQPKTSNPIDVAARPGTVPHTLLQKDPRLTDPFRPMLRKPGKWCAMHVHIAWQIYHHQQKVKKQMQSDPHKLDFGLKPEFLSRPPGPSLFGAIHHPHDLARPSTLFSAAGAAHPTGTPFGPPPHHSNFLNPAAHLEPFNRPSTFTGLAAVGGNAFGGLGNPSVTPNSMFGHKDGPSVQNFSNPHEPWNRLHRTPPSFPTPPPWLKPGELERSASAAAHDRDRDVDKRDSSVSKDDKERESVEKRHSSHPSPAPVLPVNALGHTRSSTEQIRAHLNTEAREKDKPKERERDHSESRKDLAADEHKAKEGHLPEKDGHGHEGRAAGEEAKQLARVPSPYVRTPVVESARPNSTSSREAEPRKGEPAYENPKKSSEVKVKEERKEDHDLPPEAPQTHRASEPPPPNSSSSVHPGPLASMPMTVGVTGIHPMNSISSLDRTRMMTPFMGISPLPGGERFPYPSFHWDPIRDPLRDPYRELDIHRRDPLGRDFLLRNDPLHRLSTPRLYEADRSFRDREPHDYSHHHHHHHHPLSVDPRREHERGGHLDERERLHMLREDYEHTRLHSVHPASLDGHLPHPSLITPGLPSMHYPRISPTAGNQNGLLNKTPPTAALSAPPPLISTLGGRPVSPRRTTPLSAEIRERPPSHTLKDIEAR

[2] = target: T2, proteins displaced from immobilized biotin-Cmpd 1 pulldowns (U2OS cell lysate) (Homo sapiens, UniProt Q6UB35); conditions: GN=MTHFD1L (Q6UB35)
T2 construct: endogenous in cells; host or cells: U2OS
T2 sequence (Q6UB35 32-978): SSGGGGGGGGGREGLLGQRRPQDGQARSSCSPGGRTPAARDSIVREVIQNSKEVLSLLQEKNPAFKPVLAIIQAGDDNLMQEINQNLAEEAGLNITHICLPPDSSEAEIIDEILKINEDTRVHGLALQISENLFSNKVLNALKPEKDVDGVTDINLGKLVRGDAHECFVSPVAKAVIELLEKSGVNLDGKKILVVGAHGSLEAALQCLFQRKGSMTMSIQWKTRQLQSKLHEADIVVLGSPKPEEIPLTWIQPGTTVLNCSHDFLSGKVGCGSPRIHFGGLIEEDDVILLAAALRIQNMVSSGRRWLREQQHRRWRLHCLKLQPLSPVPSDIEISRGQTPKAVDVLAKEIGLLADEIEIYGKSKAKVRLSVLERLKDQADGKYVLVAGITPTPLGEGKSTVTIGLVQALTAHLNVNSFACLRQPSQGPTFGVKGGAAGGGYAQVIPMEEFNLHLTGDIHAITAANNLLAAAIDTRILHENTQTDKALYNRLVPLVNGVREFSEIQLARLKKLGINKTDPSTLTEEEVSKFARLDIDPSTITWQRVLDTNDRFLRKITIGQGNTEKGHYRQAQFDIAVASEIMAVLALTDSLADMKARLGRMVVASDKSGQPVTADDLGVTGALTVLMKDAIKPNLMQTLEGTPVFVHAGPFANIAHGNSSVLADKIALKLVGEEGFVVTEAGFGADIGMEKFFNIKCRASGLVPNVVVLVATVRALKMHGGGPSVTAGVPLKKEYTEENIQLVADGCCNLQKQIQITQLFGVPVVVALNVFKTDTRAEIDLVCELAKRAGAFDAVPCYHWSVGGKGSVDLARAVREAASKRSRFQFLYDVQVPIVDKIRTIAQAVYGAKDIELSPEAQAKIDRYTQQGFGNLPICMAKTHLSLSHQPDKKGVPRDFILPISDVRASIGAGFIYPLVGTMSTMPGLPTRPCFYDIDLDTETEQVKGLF

[3] = target: T3, proteins displaced from immobilized biotin-Cmpd 1 pulldowns (U2OS cell lysate) (Homo sapiens, UniProt P62424); conditions: GN=RPL7A (P62424)
T3 construct: endogenous in cells; host or cells: U2OS

[4] = target: T4, proteins displaced from immobilized biotin-Cmpd 1 pulldowns (U2OS cell lysate) (Homo sapiens, UniProt Q6ZVX7); conditions: GN=NCCRP1 (Q6ZVX7)
T4 construct: endogenous in cells; host or cells: U2OS
T4 sequence (Q6ZVX7 whole entry): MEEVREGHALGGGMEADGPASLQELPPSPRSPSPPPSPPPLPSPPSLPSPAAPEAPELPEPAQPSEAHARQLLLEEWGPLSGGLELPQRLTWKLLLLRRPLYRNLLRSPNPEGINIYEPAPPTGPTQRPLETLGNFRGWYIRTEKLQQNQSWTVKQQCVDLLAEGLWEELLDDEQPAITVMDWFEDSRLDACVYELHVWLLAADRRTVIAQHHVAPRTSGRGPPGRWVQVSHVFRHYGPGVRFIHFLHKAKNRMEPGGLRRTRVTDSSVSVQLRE

[5] = target: T5, proteins displaced from immobilized biotin-Cmpd 1 pulldowns (U2OS cell lysate) (Homo sapiens, UniProt O94925); conditions: GN=GLS (O94925)
T5 construct: endogenous in cells; host or cells: U2OS
T5 sequence (O94925 55-669): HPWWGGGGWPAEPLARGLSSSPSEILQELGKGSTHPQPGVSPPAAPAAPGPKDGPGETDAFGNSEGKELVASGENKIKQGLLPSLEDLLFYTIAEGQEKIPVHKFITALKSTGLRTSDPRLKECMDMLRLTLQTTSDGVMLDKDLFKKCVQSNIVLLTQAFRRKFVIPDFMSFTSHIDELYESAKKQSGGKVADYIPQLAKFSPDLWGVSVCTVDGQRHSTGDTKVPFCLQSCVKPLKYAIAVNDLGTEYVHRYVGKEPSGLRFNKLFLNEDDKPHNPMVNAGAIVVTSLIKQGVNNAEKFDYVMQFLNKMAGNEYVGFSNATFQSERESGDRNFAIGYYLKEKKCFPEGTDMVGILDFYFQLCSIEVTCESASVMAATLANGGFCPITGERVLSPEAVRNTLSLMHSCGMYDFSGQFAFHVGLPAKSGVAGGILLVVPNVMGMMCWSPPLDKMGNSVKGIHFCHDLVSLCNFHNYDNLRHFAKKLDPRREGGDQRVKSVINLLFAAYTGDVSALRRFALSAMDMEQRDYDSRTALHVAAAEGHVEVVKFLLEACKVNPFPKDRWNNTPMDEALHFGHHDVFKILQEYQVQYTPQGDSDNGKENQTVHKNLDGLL

[6] = target: T6, proteins displaced from immobilized biotin-Cmpd 1 pulldowns (U2OS cell lysate) (Homo sapiens, UniProt Q14151); conditions: GN=SAFB2 (Q14151)
T6 construct: endogenous in cells; host or cells: U2OS

[7] = target: T7, proteins displaced from immobilized biotin-Cmpd 1 pulldowns (U2OS cell lysate) (Homo sapiens, UniProt Q9Y6M1); conditions: GN=IGF2BP2 (Q9Y6M1)
T7 construct: endogenous in cells; host or cells: U2OS
T7 sequence (Q9Y6M1 whole entry): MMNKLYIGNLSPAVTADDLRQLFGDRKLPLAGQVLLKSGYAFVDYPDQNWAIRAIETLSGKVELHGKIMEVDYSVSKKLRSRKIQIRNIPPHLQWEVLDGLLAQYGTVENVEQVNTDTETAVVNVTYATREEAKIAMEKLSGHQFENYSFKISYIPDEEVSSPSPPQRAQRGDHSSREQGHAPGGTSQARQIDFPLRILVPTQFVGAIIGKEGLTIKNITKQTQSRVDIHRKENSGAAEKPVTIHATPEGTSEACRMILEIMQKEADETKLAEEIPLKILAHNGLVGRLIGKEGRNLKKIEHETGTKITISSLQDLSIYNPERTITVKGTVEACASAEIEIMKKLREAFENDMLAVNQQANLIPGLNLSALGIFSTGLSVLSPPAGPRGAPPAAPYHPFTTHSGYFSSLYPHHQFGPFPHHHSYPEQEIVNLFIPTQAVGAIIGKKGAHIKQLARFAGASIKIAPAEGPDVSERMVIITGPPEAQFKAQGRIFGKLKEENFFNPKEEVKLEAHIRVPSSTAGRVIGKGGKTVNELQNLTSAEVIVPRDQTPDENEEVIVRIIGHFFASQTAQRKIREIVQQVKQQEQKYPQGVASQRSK

[8] = target: T8, proteins displaced from immobilized biotin-Cmpd 1 pulldowns (U2OS cell lysate) (Homo sapiens, UniProt Q13765); conditions: GN=NACA (Q13765)
T8 construct: endogenous in cells; host or cells: U2OS

[9] = target: T9, proteins displaced from immobilized biotin-Cmpd 1 pulldowns (U2OS cell lysate) (Homo sapiens, UniProt P06748); conditions: GN=NPM1 (P06748)
T9 construct: endogenous in cells; host or cells: U2OS
T9 sequence (P06748 whole entry): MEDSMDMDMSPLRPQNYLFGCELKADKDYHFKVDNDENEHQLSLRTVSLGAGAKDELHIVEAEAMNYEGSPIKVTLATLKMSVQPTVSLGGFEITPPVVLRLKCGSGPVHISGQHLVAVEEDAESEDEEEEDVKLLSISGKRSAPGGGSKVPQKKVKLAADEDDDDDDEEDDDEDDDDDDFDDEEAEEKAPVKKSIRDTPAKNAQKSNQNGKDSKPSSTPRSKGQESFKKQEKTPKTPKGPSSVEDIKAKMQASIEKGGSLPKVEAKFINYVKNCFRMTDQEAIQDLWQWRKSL

[10] = target: T10, proteins displaced from immobilized biotin-Cmpd 1 pulldowns (U2OS cell lysate) (Homo sapiens, UniProt Q9UNF1); conditions: GN=MAGED2 (Q9UNF1)
T10 construct: endogenous in cells; host or cells: U2OS
T10 sequence (Q9UNF1 whole entry): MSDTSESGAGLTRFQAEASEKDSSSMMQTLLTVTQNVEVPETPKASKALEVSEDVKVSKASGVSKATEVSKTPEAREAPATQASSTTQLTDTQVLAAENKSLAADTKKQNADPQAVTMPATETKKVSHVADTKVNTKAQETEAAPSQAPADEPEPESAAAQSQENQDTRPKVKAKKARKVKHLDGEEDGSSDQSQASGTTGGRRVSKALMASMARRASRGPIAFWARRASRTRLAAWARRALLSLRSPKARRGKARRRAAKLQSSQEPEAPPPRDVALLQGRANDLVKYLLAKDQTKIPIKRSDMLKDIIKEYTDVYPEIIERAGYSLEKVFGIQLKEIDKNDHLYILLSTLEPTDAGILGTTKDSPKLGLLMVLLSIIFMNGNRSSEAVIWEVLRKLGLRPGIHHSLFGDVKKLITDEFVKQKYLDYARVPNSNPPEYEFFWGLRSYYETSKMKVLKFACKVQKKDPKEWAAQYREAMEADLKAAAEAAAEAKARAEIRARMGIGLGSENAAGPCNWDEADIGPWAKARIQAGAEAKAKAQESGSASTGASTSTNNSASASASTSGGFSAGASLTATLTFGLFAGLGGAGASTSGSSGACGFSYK

Cn1c2c(c(=N)c3c1CCC3)CCC2 [Compound 1, 4-methyl-2,3,4,5,6,7-hexahydrodicyclopenta[b,e]pyridin-8(1H)-imine]
Difference ([1]; Cmpd minus DMSO, -LOG(P-value) 1.37908): 1.498
iBAQ Cmpd ([1]; replicates 1-3): 16.2582 and 17.12 and 17.1513
Difference ([2]; Cmpd minus DMSO, -LOG(P-value) 1.33022): 0.8728
iBAQ Cmpd ([2]; replicates 1-3): 15.8133 and 15.8201 and 15.0604
Difference ([3]; Cmpd minus DMSO, -LOG(P-value) 0.865251): 0.2314
iBAQ Cmpd ([3]; replicates 1-3): 25.9383 and 25.6872 and 25.6067
Difference ([4]; Cmpd minus DMSO, -LOG(P-value) 1.30206): -3.138
iBAQ Cmpd ([4]; replicates 1-3): 15.2988 and 15.7784 and 15.638
Difference ([5]; Cmpd minus DMSO, -LOG(P-value) 0.714958): 1.117
iBAQ Cmpd ([5]; replicates 1-3): 18.1344 and 18.3969 and 16.5727
Difference ([6]; Cmpd minus DMSO, -LOG(P-value) 1.24711): 1.435
iBAQ Cmpd ([6]; replicates 1-3): 18.2139 and 16.8013 and 17.9077
Difference ([7]; Cmpd minus DMSO, -LOG(P-value) 0.946138): 1.759
iBAQ Cmpd ([7]; replicates 1-3): 20.2891 and 19.4609 and 19.6711
Difference ([8]; Cmpd minus DMSO, -LOG(P-value) 0.904761): 3.386
iBAQ Cmpd ([8]; replicates 1-3): 21.59 and 20.9827 and 19.5819
Difference ([9]; Cmpd minus DMSO, -LOG(P-value) 0.76043): -0.4033
iBAQ Cmpd ([9]; replicates 1-3): 27.3171 and 27.18 and 26.7127
Difference ([10]; Cmpd minus DMSO, -LOG(P-value) 0.822167): 0.7403
iBAQ Cmpd ([10]; replicates 1-3): 20.5058 and 20.3034 and 20.4789
